From patent publication US11731946B2, “Broad spectrum antivirulence, anti-persistence compounds” (priority 2017, dated 2023)

Assays:
[1] = system: MvfR regulon; test: pqsA gene expression (pqsA-GFP reporter); format: cell-based, P. aeruginosa; settings: Pseudomonas aeruginosa; for IC50: read-out: IC50 pqsA (μM); for activity at 50 µM: read-out: pqsA @50 uM (%), compound at 50 uM; for activity at 10 µM: read-out: pqsA @10 uM (%), compound at 10 uM
Method: Experiments were performed to identify compounds that inhibit the MvfR regulon without altering growth, ultimately attenuating P. aeruginosa infection. MvfR is a LysR-type transcriptional regulator that directs HAQs synthesis, including that of its ligands, 4-hydroxy-2-heptylquinoline (HHQ) and 3,4-dihydroxy-2-heptylquinoline (PQS).
MvfR promotes the production of HAQs by binding to and activating the pqs operon, which encodes enzymes for HAQ synthesis. Anthranilic acid (AA), derived from the phnAB, kynABU, and trpEG pathways, is the precursor for HAQs. pqsA encodes an anthranilate-coenzyme A ligase, which activates anthranilic acid and catalyzes the first committed step to HAQ production. The exact roles of PqsB and PqsC are unknown, though both show homology to acyl-carrier-proteins and both are required for HHQ and PQS production. […] The final gene of the operon, pqsE encodes for a putative hydrolase, and while the protein is not required for the synthesis of HAQs, it is necessary for pyocyanin production.
Nanomolar levels of most of these MvfR antagonists impeded the activity of MvfR and in consequence the MvfR virulence regulated ACRP functions, including: (1) the production of the important pro-acute P. aeruginosa virulence factor pyocyanin (see e.g., FIG. 9A) the efficacy of two of these potent inhibitors, D57 and D88, was also confirmed by testing many different MDR P. aeruginosa clinical isolates (see e.g., FIG. 11A-11B), providing further confidence of their inhibitory potency; (2) the expression of the genes that encode the enzymes catalyzing the synthesis of both pro-acute and pro-persistence MvfR-regulated virulence molecules, 4-hydroxyl-2-alkyl-quinolines (HAQs) and 2-aminoacetophenon (2-AA), as assessed by pqsAGFP reporter gene expression (see e.g., FIG. 9B) and HAQ production showing the levels of MvfR inducers/ligands HHQ and PQS as well as of the molecules critical for biofilm and Antibiotic tolerant/persiters cells formation HQNO and 2-AA (see e.g., FIG. 9C); (3) AT/P cell formation (see e.g., FIGS. 11A, 12A); (4) biofilm formation (see e.g., FIG. 12B); and (5) biofilm dispersal of preformed biofilm by potentiating antibiotic action (see e.g., FIG. 11B).

[2] = molecular target: T1, MvfR (Pseudomonas aeruginosa, UniProt Q9I4X0); test: Surface plasmon resonance (SPR) binding to purified MvfR co-inducer binding domain; design: species or system P. aeruginosa; settings: SPR
T1 construct: made in house
Method: Compounds identified to interfere with MvfR were confirmed for the direct physical interaction with this protein. Using SPR, the percentage of compound's binding to the purified MvfR protein was analyzed and used to determine the binding parameters (KD, kon and koff)—thus determining the kinetic of interaction with MvfR.
The recombinant MvfR co-inducer binding domain was purified using Ni-NTA chromatography, as previously reported (see e.g., Xiao et al, Microbiology, 2006, 152:1679-1686; Starkey et al, PLoS Pathog. 2014, 10:e1004321; and Kefala et al, Acta. Crystallogr. Sect. F. Struct. Biol. Cryst. Commun. 2012, 68:695-697). The purified protein was immobilized with the amine coupling method at a target level of 5000 RU on Chip. SPR was performed according to previously reported procedures (see e.g., Starkey et al, PLoS Pathog. 2014, 10:e1004321; Maura et al, ACS Chemical Biology, 2017, 12:1435-1443; and Kitao et al, MBIO, in press). […] Table 3 lists the steady-state KD data measured by SPR.

[3] = system: MvfR regulon; test: Quantification of pyocyanin (OD520nm of chloroform-extracted cultures); format: cell-based, P. aeruginosa; settings: Pseudomonas aeruginosa; for IC50: read-out: IC50 pyocyanin (μM); for activity at 50 µM: read-out: pyocyanin @50 uM (%), compound at 50 uM; for activity at 1 µM: read-out: pyocyanin @1 uM (%), compound at 1 uM; for activity at 10 µM: read-out: pyocyanin @10 uM (%), compound at 10 uM
[4] = system: MvfR regulon; test: LC/MS quantification of HAQs and related molecules in bacterial culture supernatants; format: cell-based, P. aeruginosa; settings: Pseudomonas aeruginosa
[5] = Steady State Binding Affinity KD (μM), steady state
[6] = Steady State Binding Affinity KD [M], steady state

T1 sequence (Q9I4X0 91-332): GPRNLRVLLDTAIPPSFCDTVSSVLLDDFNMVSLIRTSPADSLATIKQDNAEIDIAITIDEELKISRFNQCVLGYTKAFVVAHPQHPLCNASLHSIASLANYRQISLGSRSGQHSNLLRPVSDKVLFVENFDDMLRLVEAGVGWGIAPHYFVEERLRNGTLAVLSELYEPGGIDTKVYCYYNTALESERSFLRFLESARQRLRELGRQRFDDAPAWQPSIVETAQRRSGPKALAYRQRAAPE

Row | SMILES | activity at 50 µM [1] [%] | activity at 50 µM [3] [%] | activity at 50 µM ([4]; read-out: 2-AA @50 uM) [%] | activity at 50 µM ([4]; read-out: AA @50 uM) [%] | activity at 50 µM ([4]; read-out: DHQ @50 uM) [%] | activity at 50 µM ([4]; read-out: HHQ @50 uM (%)) [%] | activity at 50 µM ([4]; read-out: HQNO @50 uM (%)) [%] | activity at 50 µM ([4]; read-out: PQS @50 uM (%)) [%] | activity at 10 µM [1] [%] | also measured
1 | Cc1cc(F)ccc1NCC(=O)Nc1ccc(C#N)cc1 [Compound 1] | 32.4 | 66.8 | 101 | 100 | 135 | 2.67 | 17 | 10.5 | – | IC50 [1]: 20.2 µM; Signal Intensity Rmax [2]: 23.41; Kd [2, 5]: 9.18 µM; Kd [2, 6]: 9.19 µM; IC50 [3]: 70.6 µM; IC50 ([4]; PA14, read-out: IC50 HHQ (μM)): 10.4 µM; IC50 ([4]; PA14, read-out: IC50 PQS (μM)): 15.1 µM; IC50 ([4]; read-out: IC50 HQNO (μM)): 20.3 µM
2 | N#Cc1ccc(NC(=O)CC(=O)Nc2ccc(F)cc2)cc1 [Compound 48] | 9.7 | 15.7 | 37.3 | 187 | 68.3 | 56.8 | 58.5 | 46.7 | – | IC50 [1]: 5.5 µM; IC50 [3]: 7.1 µM; IC50 ([4]; PA14, read-out: IC50 2-AA (μM)): 20.9 µM; IC50 ([4]; PA14, read-out: IC50 DHQ (μM)): 33 µM; IC50 ([4]; PA14, read-out: IC50 HHQ (μM)): 47.5 µM; IC50 ([4]; PA14, read-out: IC50 PQS (μM)): 36.5 µM; IC50 ([4]; read-out: IC50 AA (increase; μM)): 42.5 µM; IC50 ([4]; read-out: IC50 HQNO (μM)): 33.7 µM
3 | N#Cc1ccc(NC(=O)C(=O)Nc2ccc(F)cc2)cc1 [Compound 49] | 96.9 | 106 | 103 | 89.8 | 105 | 97.9 | 99.5 | 110 | – | –
4 | Cc1cc(F)ccc1N1CCCC(NC(=O)c2ccc(C#N)cc2)C1 (stereo not drawn) [Compound 50] | 89.9 | 108 | 101 | 54.5 | 84.2 | 98.5 | 100 | 96.1 | – | –
5 | Cc1cc(F)ccc1CCNC(=O)c1ccc(C#N)cc1 [Compound 51] | 91.4 | 110 | 106 | 68 | 95.5 | 96.2 | 102 | 93.5 | – | –
6 | Cc1cc(F)ccc1NC(=O)Cc1ccc(C#N)cc1 [Compound 52] | 95.7 | 115 | 113 | 80.7 | 84.9 | 102 | 109 | 99.8 | – | –
7 | N#Cc1ccc(NC(=O)CNC(=O)c2ccc(F)cc2)cc1 [Compound 58] | 70.7 | 94 | 86.6 | 32.3 | 89.8 | 77.8 | 85.9 | 85.1 | 11 | –
8 | CN(C(=O)CC(=O)Nc1ccc(C#N)cc1)c1ccc(F)cc1 [Compound 59] | 105 | 110 | 97.3 | 35.5 | 91 | 75.9 | 85.3 | 86.6 | 110 | –
9 | N#Cc1ccc(NC(=S)CC(=S)Nc2ccc(F)cc2)cc1 [Compound 60] | 80.7 | 106 | 104 | 28.2 | 82.9 | 66.6 | 77 | 83.6 | 117 | –
10 | N#Cc1ccc(NC(=O)CCC(=O)Nc2ccc(F)cc2)cc1 [Compound 61] | 77.8 | 99 | 93.6 | 42.4 | 93 | 79 | 85.5 | 87.2 | 112 | –
11 | Cc1cc(F)ccc1NC(=O)CC(=O)Nc1ccc(C#N)cc1 [Compound 62] | 43.6 | 59.5 | 72.7 | 58.7 | 84.7 | 79.6 | 86.5 | 83.5 | 110 | –
12 | CC(=O)c1ccc(NC(=O)CC(=O)Nc2ccc(C#N)cc2)cc1 [Compound 63] | 28 | 65.6 | 89.9 | 131 | 106 | 120 | 101 | 119 | 86.5 | IC50 [1]: 57.1 µM
13 | N#Cc1ccc(NC(=O)CC(=O)Nc2ccc(C(=O)C(F)(F)F)cc2)cc1 [Compound 64] | 102 | 84 | 140 | 176 | 88.8 | 107 | 103 | 104 | 107 | –
14 | N#Cc1ccc(NC(=O)CC(=O)Nc2ccc(N)cc2)cc1 [Compound 67] | 89.7 | 87.2 | 101 | 115 | 103 | 92.3 | 91.7 | 86.4 | 97.9 | –
15 | CC(=O)Nc1ccc(NC(=O)CC(=O)Nc2ccc(C#N)cc2)cc1 [Compound 68] | 84.8 | 103 | 92.8 | 56 | 98.2 | 74.7 | 84.6 | 87.6 | 94.2 | –
16 | N#Cc1ccc(NC(=O)CC(=O)Nc2ccc(NC(=O)C(F)(F)F)cc2)cc1 [Compound 69] | 84.9 | 93.8 | 117 | 82.4 | 108 | 103 | 101 | 101 | 94.2 | –
17 | CS(=O)(=O)CNc1ccc(NC(=O)CC(=O)Nc2ccc(C#N)cc2)cc1 [Compound 70] | 131 | 99.7 | 94.8 | 117 | 80 | 130 | 98.3 | 115 | 94.7 | –
18 | O=C(CC(=O)Nc1ccc([N+](=O)[O-])cc1)Nc1ccc(Oc2ccccc2)cc1 [Compound 73] | 8.9 | 5.9 | – | – | – | – | – | – | 1.95 | IC50 [1]: 0.21 µM; Signal Intensity Rmax [2]: 33.31; Kd [2, 5]: 0.755 µM; Kd [2, 6]: 0.755 µM; IC50 [3]: 0.398 µM; activity at 1 µM [3]: 9.2%; activity at 10 µM [3]: 5.2%
19 | N#Cc1ccc(NC(=O)CC(=O)Nc2ccc(C#N)c(Cl)c2)cc1 [Compound 110] | 5.61 | 4.12 | – | – | – | – | – | – | 1.75 | Kd ([2]; mean KD value, mean over the compounds named): 0.25 µM; activity at 1 µM [3]: 64.7%; activity at 10 µM [3]: 6.8%
